Source: US20250368666A1, “INDAZOLE COMPOUNDS” (TYRA BIOSCIENCES, INC., priority 2022, published 2025)
Structures can show the parent of a compound that is named as a salt. Where two headings read alike, the source gives them in different places.

Tests used:
[1] = target: T1, FGFR4 (Homo sapiens, UniProt P22455); experiment: Kinase binding assay (kinase-tagged T7 phage, affinity beads, qPCR), Kd; conditions: read-out: FGFR4 (Kd nM)
T1 construct: made in house; host or cells: E. coli (BL21-derived), T7 phage
T1 sequence (P22455 22-802): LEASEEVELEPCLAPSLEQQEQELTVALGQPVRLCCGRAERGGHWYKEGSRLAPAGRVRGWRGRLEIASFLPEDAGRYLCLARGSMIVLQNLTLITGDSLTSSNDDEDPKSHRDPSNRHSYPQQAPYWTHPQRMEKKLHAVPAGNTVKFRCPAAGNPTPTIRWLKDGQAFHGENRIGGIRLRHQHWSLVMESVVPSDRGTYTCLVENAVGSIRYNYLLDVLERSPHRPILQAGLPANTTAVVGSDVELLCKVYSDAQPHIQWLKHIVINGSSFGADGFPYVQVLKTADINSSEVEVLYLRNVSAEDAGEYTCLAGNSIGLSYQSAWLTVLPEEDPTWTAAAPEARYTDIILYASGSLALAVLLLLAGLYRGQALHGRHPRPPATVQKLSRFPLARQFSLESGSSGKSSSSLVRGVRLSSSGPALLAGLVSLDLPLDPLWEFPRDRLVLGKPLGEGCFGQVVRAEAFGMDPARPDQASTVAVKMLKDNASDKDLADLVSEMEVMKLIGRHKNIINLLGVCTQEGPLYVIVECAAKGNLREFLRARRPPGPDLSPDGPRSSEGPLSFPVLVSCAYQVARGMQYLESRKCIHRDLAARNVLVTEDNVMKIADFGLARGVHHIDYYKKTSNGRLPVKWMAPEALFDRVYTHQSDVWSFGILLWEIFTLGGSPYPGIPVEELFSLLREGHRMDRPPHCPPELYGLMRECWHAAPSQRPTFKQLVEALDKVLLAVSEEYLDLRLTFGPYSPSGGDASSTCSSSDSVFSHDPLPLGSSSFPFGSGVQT
Summary of the method: (§1)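 Competition binding; kinase-tagged T7 phage lysate vs immobilised biotinylated ligand on streptavidin beads, 0.9% DMSO final. 11-pt 3-fold dilutions, 3 DMSO controls. qPCR of eluted kinase; Kd by Hill fit, slope −1.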

[2] = target: T2, FGFR1 (Homo sapiens, UniProt P11362); experiment: as above; conditions: read-out: FGFR1 (Kd nM)
T2 construct: made in house; host or cells: E. coli (BL21-derived), T7 phage
T2 sequence (P11362 22-822): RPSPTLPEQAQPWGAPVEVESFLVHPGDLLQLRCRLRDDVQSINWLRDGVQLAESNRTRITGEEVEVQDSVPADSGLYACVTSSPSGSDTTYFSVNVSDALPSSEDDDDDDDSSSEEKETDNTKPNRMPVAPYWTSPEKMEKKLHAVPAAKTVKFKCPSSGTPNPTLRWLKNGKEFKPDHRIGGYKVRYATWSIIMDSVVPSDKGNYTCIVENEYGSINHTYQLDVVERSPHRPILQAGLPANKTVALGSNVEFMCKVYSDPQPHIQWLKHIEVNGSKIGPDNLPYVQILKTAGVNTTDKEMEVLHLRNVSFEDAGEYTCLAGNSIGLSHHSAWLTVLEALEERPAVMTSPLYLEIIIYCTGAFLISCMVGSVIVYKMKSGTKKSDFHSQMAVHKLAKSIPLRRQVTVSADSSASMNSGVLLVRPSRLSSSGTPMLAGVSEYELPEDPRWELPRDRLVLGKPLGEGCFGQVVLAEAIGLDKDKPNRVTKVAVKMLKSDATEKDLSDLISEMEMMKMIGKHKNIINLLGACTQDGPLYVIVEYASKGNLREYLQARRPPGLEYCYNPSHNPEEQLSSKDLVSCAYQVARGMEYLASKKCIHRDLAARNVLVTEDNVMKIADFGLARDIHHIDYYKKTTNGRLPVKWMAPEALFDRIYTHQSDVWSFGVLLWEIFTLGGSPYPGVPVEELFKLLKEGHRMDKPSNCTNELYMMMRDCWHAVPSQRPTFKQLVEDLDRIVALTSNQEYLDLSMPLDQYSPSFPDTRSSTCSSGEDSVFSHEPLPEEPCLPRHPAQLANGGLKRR
Summary of the method: as §1

[3] = target: T3, FGFR2 (Homo sapiens, UniProt P21802); experiment: as above; conditions: read-out: FGFR2 (Kd nM)
T3 construct: made in house; host or cells: E. coli (BL21-derived), T7 phage
T3 sequence (P21802 22-821): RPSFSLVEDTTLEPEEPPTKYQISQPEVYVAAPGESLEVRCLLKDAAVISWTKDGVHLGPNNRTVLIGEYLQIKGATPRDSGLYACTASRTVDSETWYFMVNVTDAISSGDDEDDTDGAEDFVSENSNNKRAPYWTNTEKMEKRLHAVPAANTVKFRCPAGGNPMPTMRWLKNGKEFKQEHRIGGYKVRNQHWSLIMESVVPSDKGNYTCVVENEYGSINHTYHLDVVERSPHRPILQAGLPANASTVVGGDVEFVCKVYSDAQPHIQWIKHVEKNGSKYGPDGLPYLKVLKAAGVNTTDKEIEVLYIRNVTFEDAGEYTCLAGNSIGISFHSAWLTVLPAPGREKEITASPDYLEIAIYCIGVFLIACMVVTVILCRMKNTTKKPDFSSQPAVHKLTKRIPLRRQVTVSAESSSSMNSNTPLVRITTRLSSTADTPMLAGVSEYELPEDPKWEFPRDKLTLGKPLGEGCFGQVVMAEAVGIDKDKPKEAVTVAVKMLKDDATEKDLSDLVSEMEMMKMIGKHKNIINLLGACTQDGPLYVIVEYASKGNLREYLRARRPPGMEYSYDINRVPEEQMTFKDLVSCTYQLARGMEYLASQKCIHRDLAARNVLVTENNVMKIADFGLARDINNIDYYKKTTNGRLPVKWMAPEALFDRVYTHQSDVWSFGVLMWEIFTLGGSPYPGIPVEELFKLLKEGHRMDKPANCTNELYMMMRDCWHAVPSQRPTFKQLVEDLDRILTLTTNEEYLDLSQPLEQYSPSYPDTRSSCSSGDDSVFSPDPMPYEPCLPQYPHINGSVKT
Summary of the method: as §1

[4] = target: T4, FGFR3 (Homo sapiens, UniProt P22607); experiment: as above; conditions: read-out: FGFR3 (Kd nM)
T4 construct: made in house; host or cells: E. coli (BL21-derived), T7 phage
T4 sequence (P22607 23-806): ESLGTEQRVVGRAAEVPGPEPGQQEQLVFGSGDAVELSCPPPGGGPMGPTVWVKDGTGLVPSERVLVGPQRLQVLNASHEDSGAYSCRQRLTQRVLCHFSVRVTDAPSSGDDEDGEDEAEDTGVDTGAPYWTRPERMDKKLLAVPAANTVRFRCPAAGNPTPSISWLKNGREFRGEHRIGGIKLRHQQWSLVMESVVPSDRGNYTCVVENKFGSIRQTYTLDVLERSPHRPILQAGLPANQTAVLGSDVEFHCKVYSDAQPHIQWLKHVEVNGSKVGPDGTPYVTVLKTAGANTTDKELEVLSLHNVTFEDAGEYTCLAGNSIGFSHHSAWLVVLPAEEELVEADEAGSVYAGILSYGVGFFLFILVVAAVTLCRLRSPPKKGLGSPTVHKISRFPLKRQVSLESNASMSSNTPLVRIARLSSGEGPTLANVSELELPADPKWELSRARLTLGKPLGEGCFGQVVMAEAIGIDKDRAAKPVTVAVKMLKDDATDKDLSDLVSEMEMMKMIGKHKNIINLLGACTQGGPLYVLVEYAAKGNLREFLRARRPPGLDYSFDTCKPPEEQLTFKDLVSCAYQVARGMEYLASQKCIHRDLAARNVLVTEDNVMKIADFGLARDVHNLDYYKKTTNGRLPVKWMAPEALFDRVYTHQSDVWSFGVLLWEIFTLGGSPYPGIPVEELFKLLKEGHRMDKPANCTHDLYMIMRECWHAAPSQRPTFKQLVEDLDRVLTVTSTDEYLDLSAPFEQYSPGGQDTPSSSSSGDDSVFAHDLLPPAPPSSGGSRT
Summary of the method: as §1

[5] = tested on: HuH7 cell line (FGF19 amplification); experiment: Cancer cell line cell viability assay (Cell Titer-Glo), 120 hr; assay type: cell-based; conditions: Homo sapiens, Huh-7
Description: Experimental Purpose: To detect the change of intracellular ATP by Cell Titer-Glo® and to evaluate the inhibitory effect of the compounds on cancer cell lines by determining the in vitro IC50 value of the compounds.
Cell Titer-Glo® 2.0 Luminescent cell viability assay reagent was purchased from Promega (Madison, WI). KG-1, KATO-III, and MDA-MB-453 cell lines were purchased from American Type Culture Collection (Manassas, VA). RT112/84 cell line was purchased from Millipore-Sigma (St. Louis, MO). HuH7 cells were purchased from Seikisui Xenotech (Kansas City, KS). RT112/84 and MDA-MB-453 cells were cultured in RPMI1640 media supplemented with 10% fetal bovine serum. KG-1 and KATO-III cell lines were cultured in IMDM media supplemented with 20% FBS. HuH7 cells were cultured in IMDM media supplemented with 10% FBS. Cultures were maintained at 37° C. in a humidified atmosphere of 5% CO2 and 95% air.
Cell Viability Assay Procedure: Cells were plated in 96-well clear bottom/white plates (Corning #3903) at a range of densities depending on the optimal assay window (5,000-20,000 cells/well in […] of media), incubated overnight. The next day, test compound DMSO stock solutions were made at 10 mM and […] final concentration. Compounds were then added to cells in a 9-dose, 4-fold dilution series starting at 3 μM with an HP 300e Digital Dispenser (each dose was applied in triplicate). DMSO was backfilled to each well up to 301 nL total volume of test compound+DMSO, and a total of 301 nL DMSO was added to a control/no test compound well in triplicate. The cells in cell culture plates were incubated with the compounds at 37° C. and 5% CO2 for 72 hours-120 hours depending on the cell line. Then 50 μl of Cell Titer Glo 2.0 reagent was added to each well of the cell culture plates. The contents were covered from light and mixed on an orbital shaker at room temperature for minimum of 10 min. Luminescence was recorded by a Clariostar Plus Microplate Reader (BMG Labtech, Cary, NC). Cells were assessed as a percentage of DMSO only treated control cells. Curves were plotted and IC50 values were calculated using the GraphPad Prism 9 program based on a sigmoidal dose-response equation (log (inhibitor) vs. response—Variable slope, 4-parameter).

[6] = target: T5, FGFR3 (V555M) (Homo sapiens, UniProt P22607, V555M); experiment: Kinase binding assay (kinase-tagged T7 phage, affinity beads, qPCR), Kd; conditions: V555M mutant; read-out: FGFR3 (V555M) (Kd nM)
T5 construct: made in house; host or cells: E. coli (BL21-derived), T7 phage
T5 sequence (P22607 23-806 V555M): as the sequence (P22607 23-806) above, with V533M counted along it
Summary of the method: as §1

[7] = tested on: KG-1 cell line (FGFR 1-fusion); experiment: Cancer cell line cell viability assay (Cell Titer-Glo), 72 hr; assay type: cell-based; conditions: Homo sapiens, KG-1, KG-1 cell line (FGFR1-fusion)
Summary of the method: (§2)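 Cells were seeded at 5,000–20,000 per well, then exposed to a 9-point, 4-fold dilution series from 3 μM top concentration in triplicate at 37° C. Exposure was 120 h for MDA-MB-453 and HuH7 and 72 h for KG-1 and RT112/84. Viability was read as ATP by Cell Titer-Glo 2.0, expressed as % of DMSO control, and fitted by 4-parameter IC50.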

[8] = tested on: KATO-III cell line (FGFR2 amplification); experiment: as above; assay type: cell-based; conditions: Homo sapiens, KATO III
Summary of the method: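 Following overnight attachment, each line receives compound in triplicate across nine 4-fold dilutions starting at 3 μM, with DMSO backfill for equal solvent. Luminescence after Cell Titer-Glo 2.0 addition gives percent viability versus DMSO control, fitted by 4-parameter logistic for IC50.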

[9] = tested on: RT112/84 cell line (FGFR3-fusion); experiment: as above; assay type: cell-based; conditions: Homo sapiens, RT112/84, RT112/84 cell line (FGFR3-fusion)
Summary of the method: as §2

[10] = kinase binding assay, 11-point 3-fold dilution series

SMILES | Kd [1] [nM] | Kd [2] [nM] | Kd [3] [nM] | Kd [4] [nM] | IC50 [5] [nM] | Kd [1, 10] [nM] | Kd [2, 10] [nM] | Kd [3, 10] [nM] | Kd [4, 10] [nM] | Kd [6] [nM] | IC50 [7] [nM] | IC50 [8] [nM] | IC50 [9] [nM]
COc1cc2[nH]nc(-c3cnc(N4CC(N)(Cc5ccn(C)n5)C4)c(C#N)c3)c2cc1O[C@H](C)c1c(Cl)cncc1Cl [Example 366, (R)-2-(3-amino-3-((1-methyl-1H-pyrazol-3-yl)methyl)azetidin-1-yl)-5-(5-(1-(3,5-dichloropyridin-4-yl)ethoxy)-6-methoxy-1H-indazol-3-yl)nicotinonitrile] | 1 to 50 | 1 to 50 | 1 to 50 | 1 to 50 | 0.1 to 50 | – | – | – | – | – | – | – | –
COc1cc2[nH]nc(-c3cc(C#N)c(N4CC(C)(NCC5CC5)C4)nn3)c2cc1O[C@H](C)c1c(Cl)cncc1Cl [Example 347, (R)-3-(3-((cyclopropyl-methyl)amino)-3-methylazetidin-1-yl)-6-(5-(1-(3,5-dichloropyridin-4-yl)ethoxy)-6-methoxy-1H-indazol-3-yl)pyridazine-4-carbonitrile] | 1 to 50 | 1 to 50 | 1 to 50 | 1 to 50 | 0.1 to 50 | – | – | – | – | – | – | – | –
COc1cc2[nH]nc(-c3cc(C#N)c(N4CC(C)(N(C)C)C4)nn3)c2cc1O[C@H](C)c1c(Cl)cncc1Cl [Example 349, (R)-6-(5-(1-(3,5-dichloropyridin-4-yl)ethoxy)-6-methoxy-1H-indazol-3-yl)-3-(3-(dimethylamino)-3-methylazetidin-1-yl)pyridazine-4-carbonitrile] | 1 to 50 | 1 to 50 | 1 to 50 | 1 to 50 | 0.1 to 50 | – | – | – | – | – | – | – | –
CCC1(NCC2CC2)CN(c2ncc(-c3n[nH]c4cc(OC)c(O[C@H](C)c5c(Cl)cncc5Cl)cc34)cc2C#N)C1 [Example 348, (R)-2-(3-((Cyclopropylmethyl)amino)-3-ethylazetidin-1-yl)-5-(5-(1-(3,5-dichloropyridin-4-yl)ethoxy)-6-methoxy-1H-indazol-3-yl)nicotinonitrile dihydrochloride] | 1 to 50 | 1 to 50 | 1 to 50 | 1 to 50 | 0.1 to 50 | – | – | – | – | – | – | – | –
COc1cc2[nH]nc(-c3cnc(N4CC(CC#N)(N(C)C(C)C)C4)c(C#N)c3)c2cc1O[C@H](C)c1c(Cl)cncc1Cl [Example 358, (R)-2-(3-(cyanomethyl)-3-(isopropyl(methyl)-amino)azetidin-1-yl)-5-(5-(1-(3,5-dichloropyridin-4-yl)ethoxy)-6-methoxy-1H-indazol-3-yl)nicotinonitrile] | 1 to 50 | 1 to 50 | 50 to 300 | 1 to 50 | 0.1 to 50 | – | – | – | – | – | – | – | –
COc1cc2[nH]nc(-c3cnc(N4CC[C@](C)(NCC5CC5)C4)c(C#N)c3)c2cc1O[C@H](C)c1c(Cl)cncc1Cl [Example 410, 2-((S)-3-((cyclopropyl-methyl)-amino)-3-methylpyrrolidin-1-yl)-5-(5-((R)-1-(3,5-dichloropyridin-4-yl)ethoxy)-6-methoxy-1H-indazol-3-yl)nicotinonitrile] | – | – | – | – | 0.1 to 50 | 1 to 50 | 1 to 50 | 1 to 50 | 1 to 50 | – | – | – | –
COc1cc2[nH]nc(-c3cnc(N4CC(C)(O)C4)c(C#N)c3)c2cc1O[C@H](C)c1c(Cl)cncc1Cl [Example 370, 5-[5-[(1R)-1-(3,5-dichloro-4-pyridyl)ethoxy]-6-methoxy-1H-indazol-3-yl]-2-(3-hydroxy-3-methyl-azetidin-1-yl)pyridine-3-carbonitrile] | 1 to 50 | 1 to 50 | 1 to 50 | 1 to 50 | 0.1 to 50 | – | – | – | – | – | – | – | –
COc1cc2[nH]nc(-c3cnc(N4CC[C@@](C)(NCC5CC5)C4)c(C#N)c3)c2cc1O[C@H](C)c1c(Cl)cncc1Cl [Example 409, 2-((R)-3-((cyclo-propylmethyl)-amino)-3-methylpyrrolidin-1-yl)-5-(5-((R)-1-(3,5-dichloropyridin-4-yl)ethoxy)-6-methoxy-1H-indazol-3-yl)nicotinonitrile] | – | – | – | – | 0.1 to 50 | 1 to 50 | 1 to 50 | 1 to 50 | 1 to 50 | – | – | – | –
COc1cc2[nH]nc(-c3cnc(N4CCC(C)(NCC5CC5)CC4)c(C#N)c3)c2cc1O[C@H](C)c1c(Cl)cncc1Cl [Example 411, (R)-2-(4-((cyclo-propylmethyl)amino)-4-methylpiperidin-1-yl)-5-(5-(1-(3,5-dichloropyridin-4-yl)ethoxy)-6-methoxy-1H-indazol-3-yl)nicotinonitrile] | – | – | – | – | 0.1 to 50 | – | – | – | – | – | – | – | –
COc1cc2[nH]nc(-c3cc(C#N)c(N4CC(C)(NCC(C)C)C4)nn3)c2cc1O[C@H](C)c1c(Cl)cncc1Cl [Example 342, (R)-6-(5-(1-(3,5-dichloropyridin-4-yl)ethoxy)-6-methoxy-1H-indazol-3-yl)-3-(3-(isobutylamino)-3-methylazetidin-1-yl)pyridazine-4-carbonitrile] | 1 to 50 | 1 to 50 | 1 to 50 | 1 to 50 | 50 to 200 | – | – | – | – | – | – | – | –
COc1cc2[nH]nc(-c3cnc(N4CC(C)(NCC(C)C)C4)c(C#N)c3)c2cc1O[C@H](C)c1c(Cl)cnc(C)c1Cl [Example 355, 5-[5-[(1R)-1-(3,5-dichloro-2-methyl-4-pyridyl)ethoxy]-6-methoxy-1H-indazol-3-yl]-2-[3-(isobutylamino)-3-methyl-azetidin-1-yl]pyridine-3-carbonitrile] | 1 to 50 | 1 to 50 | 50 to 300 | 1 to 50 | 50 to 200 | – | – | – | – | – | – | – | –
COc1cc2[nH]nc(-c3cnc(N4CC(C)(NC[C@H](C)O)C4)c(F)c3)c2cc1O[C@H](C)c1c(Cl)cncc1Cl [Example 160, (S)-1-((1-(5-(5-((R)-1-(3,5-dichloropyridin-4-yl)ethoxy)-6-methoxy-1H-indazol-3-yl)-3-fluoropyridin-2-yl)-3-methylazetidin-3-yl)amino)propan-2-ol] | 1 to 50 | 1 to 50 | 1 to 50 | 1 to 50 | – | – | – | – | – | 1 to 50 | 0.1 to 50 | 0.1 to 50 | 0.1 to 50
C[C@@H](Oc1ccc2[nH]nc(-c3cnc(N4CC(C)(NCC(C)(C)O)C4)c(F)c3)c2c1)c1c(Cl)cncc1Cl [Example 113, (R)-1-((1-(5-(5-(1-(3,5-dichloropyridin-4-yl)ethoxy)-1H-indazol-3-yl)-3-fluoropyridin-2-yl)-3-methylazetidin-3-yl)amino)-2-methylpropan-2-ol] | 1 to 50 | 1 to 50 | 1 to 50 | 1 to 50 | – | – | – | – | – | 1 to 50 | 50 to 200 | 0.1 to 50 | 0.1 to 50
COc1cc2[nH]nc(-c3cnc(N4CC(C)(NCC(C)(C)O)C4)c(F)c3)c2cc1O[C@H](C)c1c(Cl)cncc1Cl [Example 159] | 1 to 50 | 1 to 50 | 1 to 50 | 1 to 50 | – | – | – | – | – | 1 to 50 | 0.1 to 50 | 0.1 to 50 | 0.1 to 50
